Assay results published in article PMC9628809, “Icaritin Preparation from Icariin by a Special Epimedium Flavonoid-Glycosidase from Aspergillus sp.y848 Strain” (Journal of Microbiology and Biotechnology, 2022).

Tested on: T1, Epimedium flavonoid-glycosidase
T1 construct: native secreted enzyme purified from culture supernatant (DEAE-cellulose DE-52)
Experiment: TLC scanning of substrate and products, Lineweaver-Burk plot
Format: biochemical, Aspergillus sp. y848
Details: 0.02 M acetate buffer pH 5.0, 40°C; icariin 12.5-50 mM

Km: 15.6 mM
Compound: COc1ccc(-c2oc3c(CC=C(C)C)c(O[C@@H]4O[C@H](CO)[C@@H](O)[C@H](O)[C@H]4O)cc(O)c3c(=O)c2O[C@@H]2O[C@@H](C)[C@H](O)[C@@H](O)[C@H]2O)cc1 [icariin]
